Results as given in article PMC9014845 (Clinical cancer research : an official journal of the …, 2019).

Test system: patients with advanced solid tumors harboring FGFR1–3 gene alterations
Assay: Phase I dose-escalation: safety/tolerability
Type: in vivo, human

Debio 1347
TEAE: Back pain (150 mg (n=3), all grades): 1 (33) Number (%) of patients | TEAE: Blurred vision (150 mg (n=3), all grades): 0 Number (%) of patients | TEAE: Constipation (150 mg (n=3), all grades): 1 (33) Number (%) of patients | TEAE: Creatinine increased (in blood) (150 mg (n=3), all grades): 0 Number (%) of patients | TEAE: Decreased appetite (150 mg (n=3), all grades): 1 (33) Number (%) of patients | TEAE: Diarrhea (150 mg (n=3), all grades): 1 (33) Number (%) of patients | TEAE: Dry eye (150 mg (n=3), all grades): 1 (33) Number (%) of patients | TEAE: Dry mouth (150 mg (n=3), all grades): 1 (33) Number (%) of patients | TEAE: Dry skin (150 mg (n=3), all grades): 1 (33) Number (%) of patients | TEAE: Dysgeusia (150 mg (n=3), all grades): 2 (67) Number (%) of patients | TEAE: Dyspnea (150 mg (n=3), all grades): 1 (33) Number (%) of patients | TEAE: Edema peripheral (150 mg (n=3), all grades): 1 (33) Number (%) of patients | TEAE: Fatigue (150 mg (n=3), all grades): 0 Number (%) of patients | TEAE: Hyperphosphatemia (150 mg (n=3), all grades): 3 (100) Number (%) of patients | TEAE: Hypertension (150 mg (n=3), all grades): 0 Number (%) of patients | TEAE: Hypokalemia (150 mg (n=3), all grades): 0 Number (%) of patients | TEAE: Hypomagnesemia (150 mg (n=3), all grades): 0 Number (%) of patients | TEAE: Mucosal inflammation (150 mg (n=3), all grades): 1 (33) Number (%) of patients | TEAE: Myalgia (150 mg (n=3), all grades): 0 Number (%) of patients | TEAE: Nail changes (150 mg (n=3), all grades): 3 (100) Number (%) of patients | TEAE: Nausea (150 mg (n=3), all grades): 2 (67) Number (%) of patients | TEAE: Stomatitis (150 mg (n=3), all grades): 1 (33) Number (%) of patients | TEAE: Vomiting (150 mg (n=3), all grades): 1 (33) Number (%) of patients | Patients requiring dose reduction (60 and 80 mg): 20% | Any TEAE (all doses (n=58), all grades): 58 (100%) Number (%) of patients | Any TEAE leading to discontinuation (all doses (n=58), all grades): 7 (12.1) Number (%) of patients | Any TEAE leading to dose reduction (all doses (n=58), all grades): 13 (22.4) Number (%) of patients | Any TEAE leading to treatment interruption (all doses (n=58), all grades): 26 (44.8) Number (%) of patients | Serious TEAE (all doses (n=58), all grades): 20 (34.5) Number (%) of patients | TEAE: ALT increased (all doses (n=58), all grades): 6 (10) Number (%) of patients | TEAE: AST increased (all doses (n=58), all grades): 6 (10) Number (%) of patients | TEAE: Abdominal pain (all doses (n=58), all grades): 12 (21) Number (%) of patients | TEAE: Alopecia (all doses (n=58), all grades): 11 (19) Number (%) of patients | TEAE: Anemia (all doses (n=58), all grades): 12 (21) Number (%) of patients | TEAE: Back pain (all doses (n=58), all grades): 9 (16) Number (%) of patients | TEAE: Blurred vision (all doses (n=58), all grades): 6 (10) Number (%) of patients | TEAE: Constipation (all doses (n=58), all grades): 19 (33) Number (%) of patients | TEAE: Creatinine increased (in blood) (all doses (n=58), all grades): 8 (14) Number (%) of patients | TEAE: Decreased appetite (all doses (n=58), all grades): 18 (31) Number (%) of patients | TEAE: Diarrhea (all doses (n=58), all grades): 24 (41) Number (%) of patients | TEAE: Dry eye (all doses (n=58), all grades): 8 (14) Number (%) of patients | TEAE: Dry mouth (all doses (n=58), all grades): 15 (26) Number (%) of patients | TEAE: Dry skin (all doses (n=58), all grades): 10 (17) Number (%) of patients | TEAE: Dysgeusia (all doses (n=58), all grades): 10 (17) Number (%) of patients | TEAE: Dyspnea (all doses (n=58), all grades): 12 (21) Number (%) of patients | TEAE: Edema peripheral (all doses (n=58), all grades): 8 (14) Number (%) of patients | TEAE: Fatigue (all doses (n=58), all grades): 22 (38) Number (%) of patients | TEAE: Hyperphosphatemia (all doses (n=58), all grades): 44 (76) Number (%) of patients | TEAE: Hypertension (all doses (n=58), all grades): 7 (12) Number (%) of patients | TEAE: Hypokalemia (all doses (n=58), all grades): 8 (14) Number (%) of patients | TEAE: Hypomagnesemia (all doses (n=58), all grades): 7 (12) Number (%) of patients | TEAE: Mucosal inflammation (all doses (n=58), all grades): 8 (14) Number (%) of patients | TEAE: Myalgia (all doses (n=58), all grades): 12 (21) Number (%) of patients | TEAE: Nail changes (all doses (n=58), all grades): 17 (29) Number (%) of patients | TEAE: Nausea (all doses (n=58), all grades): 23 (40) Number (%) of patients | TEAE: Stomatitis (all doses (n=58), all grades): 12 (21) Number (%) of patients | TEAE: Vomiting (all doses (n=58), all grades): 11 (19) Number (%) of patients | Any TEAE (all doses (n=58), grade ≥3): 37 (64%) Number (%) of patients | TEAE: ALT increased (all doses (n=58), grade ≥3): 2 (3) Number (%) of patients | TEAE: AST increased (all doses (n=58), grade ≥3): 1 (2) Number (%) of patients | TEAE: Abdominal pain (all doses (n=58), grade ≥3): 1 (2) Number (%) of patients | TEAE: Alopecia (all doses (n=58), grade ≥3): 0 Number (%) of patients | TEAE: Anemia (all doses (n=58), grade ≥3): 7 (12) Number (%) of patients | TEAE: Back pain (all doses (n=58), grade ≥3): 1 (2) Number (%) of patients | TEAE: Blurred vision (all doses (n=58), grade ≥3): 0 Number (%) of patients | TEAE: Constipation (all doses (n=58), grade ≥3): 1 (2) Number (%) of patients | TEAE: Creatinine increased (in blood) (all doses (n=58), grade ≥3): 0 Number (%) of patients | TEAE: Decreased appetite (all doses (n=58), grade ≥3): 1 (2) Number (%) of patients | TEAE: Diarrhea (all doses (n=58), grade ≥3): 2 (3) Number (%) of patients | TEAE: Dry eye (all doses (n=58), grade ≥3): 0 Number (%) of patients | TEAE: Dry mouth (all doses (n=58), grade ≥3): 0 Number (%) of patients | TEAE: Dry skin (all doses (n=58), grade ≥3): 0 Number (%) of patients | TEAE: Dysgeusia (all doses (n=58), grade ≥3): 0 Number (%) of patients | TEAE: Dyspnea (all doses (n=58), grade ≥3): 3 (5) Number (%) of patients | TEAE: Edema peripheral (all doses (n=58), grade ≥3): 0 Number (%) of patients | TEAE: Fatigue (all doses (n=58), grade ≥3): 0 Number (%) of patients | TEAE: Hyperphosphatemia (all doses (n=58), grade ≥3): 12 (21) Number (%) of patients | TEAE: Hypertension (all doses (n=58), grade ≥3): 0 Number (%) of patients | TEAE: Hypokalemia (all doses (n=58), grade ≥3): 1 (2) Number (%) of patients | TEAE: Hypomagnesemia (all doses (n=58), grade ≥3): 0 Number (%) of patients | TEAE: Mucosal inflammation (all doses (n=58), grade ≥3): 1 (2) Number (%) of patients | TEAE: Myalgia (all doses (n=58), grade ≥3): 0 Number (%) of patients | TEAE: Nail changes (all doses (n=58), grade ≥3): 0 Number (%) of patients | TEAE: Nausea (all doses (n=58), grade ≥3): 0 Number (%) of patients | TEAE: Stomatitis (all doses (n=58), grade ≥3): 2 (3) Number (%) of patients | TEAE: Vomiting (all doses (n=58), grade ≥3): 0 Number (%) of patients | Patients in whom adverse events required dose modifications (all doses, n=58): 52% | Patients requiring dose modifications due to AEs (all doses, n=58): 30 (52%) patients (%) | Patients with dose modifications due to asymptomatic hyperphosphatemia (all doses, n=58): 22% | Patients reporting blurred vision (at 30–150 mg, mainly grade 1): 6 patients | Recommended phase 2 dose (RP2D) (dose reduction to 60 mg/day in case of intolerable toxicity): 80 mg/daily | Maximum tolerated dose (doses up to 150 mg/day once daily, 3+3+3 design): not formally reached | Patients with DLTs (first 4 weeks, at three dose levels, 58 treated at 10 to 150 mg/day): Five | Number of DLTs (first 4 weeks, dry mouth/eyes, hyperamylasemia, hypercalcemia, hyperbilirubinemia, hyperphosphatemia, stomatitis): 6 DLTs | SAEs deemed possibly study drug related (DLTs) (hyperamylasemia (80 mg), stomatitis (110 mg)): two | Maximum severity of dermatological toxicity / nail changes (in vivo): ≤ 2 grade | Patients with QTc prolongations of grade 1 or 2 (in vivo): Three | Patients with nail changes requiring dose adjustment (in vivo): 3 patients | Drug-related deaths (n=58): no death was considered drug-related | Number of SAEs (n=58): 39 SAEs | Patients experiencing SAEs (n=58): 20 patients | Patients who died from disease progression (n=58): 21 patients | Patients with highest TEAE severity grade 1 (n=58): 4 (7%) patients (%) | Patients with highest TEAE severity grade 2 (n=58): 17 (29%) patients (%) | Patients with highest TEAE severity grade 3 (n=58): 28 (48%) patients (%) | Patients with highest TEAE severity grade 4 (n=58): 2 (3%) patients (%) | Patients with highest TEAE severity grade 5 (n=58): 7 (12%) patients (%) | Dose up to which tolerability was acceptable (oral once daily): up to 80 mg/day | Lowest dose at which serum phosphate increases occurred (typically between 1st and 3rd week of dosing): 20 mg | Dose reduction required (up to 40 mg): no dose reduction was required
